Data as given in ChEMBL document CHEMBL3132744, “Structureactivity relationship studies of miniproteins targeting the androgen receptorcoactivator interaction” (Medchemcomm, 2013).
Square brackets hold non-standard residues; d marks the D form. Peptide text beside a SMILES is read from it. Phe(4-Cl) = N[C@@H](Cc1ccc(Cl)cc1)C(=O)O; Phe(2-Cl) = N[C@@H](Cc1ccccc1Cl)C(=O)O; Cha = N[C@@H](CC1CCCCC1)C(=O)O

Biological target: T1, Androgen receptor (Homo sapiens, UniProt P10275)
T1 sequence (P10275 whole entry): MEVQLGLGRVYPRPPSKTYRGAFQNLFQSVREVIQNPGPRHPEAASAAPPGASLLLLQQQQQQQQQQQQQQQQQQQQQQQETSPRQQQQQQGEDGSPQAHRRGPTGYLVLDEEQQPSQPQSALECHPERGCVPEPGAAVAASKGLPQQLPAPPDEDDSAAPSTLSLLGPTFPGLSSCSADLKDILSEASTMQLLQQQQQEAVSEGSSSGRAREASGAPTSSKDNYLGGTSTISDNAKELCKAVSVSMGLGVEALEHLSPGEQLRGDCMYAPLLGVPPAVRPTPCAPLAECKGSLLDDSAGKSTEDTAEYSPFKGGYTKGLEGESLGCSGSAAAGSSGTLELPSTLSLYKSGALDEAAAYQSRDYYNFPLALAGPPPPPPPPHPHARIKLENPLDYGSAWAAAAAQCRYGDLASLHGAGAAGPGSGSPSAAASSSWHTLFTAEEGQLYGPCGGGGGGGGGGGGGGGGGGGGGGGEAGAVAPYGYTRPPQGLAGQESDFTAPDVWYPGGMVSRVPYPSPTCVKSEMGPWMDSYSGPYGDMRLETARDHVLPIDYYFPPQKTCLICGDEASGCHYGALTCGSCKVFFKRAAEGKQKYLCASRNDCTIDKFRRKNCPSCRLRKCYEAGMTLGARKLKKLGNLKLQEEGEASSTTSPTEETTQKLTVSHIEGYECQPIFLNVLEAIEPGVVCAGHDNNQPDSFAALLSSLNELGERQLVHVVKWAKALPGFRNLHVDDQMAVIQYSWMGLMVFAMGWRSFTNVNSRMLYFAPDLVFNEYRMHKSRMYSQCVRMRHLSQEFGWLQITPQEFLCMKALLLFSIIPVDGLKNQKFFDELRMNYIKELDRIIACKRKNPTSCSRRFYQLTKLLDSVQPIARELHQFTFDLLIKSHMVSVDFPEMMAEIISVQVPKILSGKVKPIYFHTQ
Experiment: Displacement of fluorescein-CSSRFESLFAGEKESR from human androgen receptor-LBD after 1 hr by fluorescence polarization assay

Ki	Structure (SMILES)
13000 nM	CC[C@H](C)[C@H](NC(=O)[C@H](CS)NC(=O)[C@H](CC(C)C)NC(=O)[C@H](CC(C)C)NC(=O)[C@H](CCC(=O)O)NC(=O)[C@H](CS)NC(=O)[C@H](CC(C)C)NC(=O)[C@H](CCCNC(=N)N)NC(=O)[C@@H](N)CC(N)=O)C(=O)N[C@@H](CCC(N)=O)C(=O)NCC(=O)N[C@H](C(=O)NCC(=O)N[C@@H](CC(=O)O)C(=O)N[C@H](C(=O)N[C@@H](CCCCN)C(=O)N[C@@H](C)C(=O)N[C@@H](CS)C(=O)N[C@@H](CCC(=O)O)C(=O)N[C@@H](Cc1c[nH]c2ccccc12)C(=O)N[C@@H](C)C(=O)N[C@@H](CS)C(=O)N[C@@H](CCC(N)=O)C(=O)O)C(C)C)[C@@H](C)O (H-NRLCELLCIQGTGDVKACEWACQ-OH)
11000 nM	CC[C@H](C)[C@H](NC(=O)[C@H](CS)NC(=O)[C@H](Cc1ccccc1)NC(=O)[C@H](CC(C)C)NC(=O)[C@H](CCC(=O)O)NC(=O)[C@H](CS)NC(=O)[C@H](CC1CCCCC1)NC(=O)[C@H](CCCNC(=N)N)NC(=O)[C@@H](N)CC(N)=O)C(=O)N[C@@H](CCC(N)=O)C(=O)NCC(=O)N[C@H](C(=O)NCC(=O)N[C@@H](CC(=O)O)C(=O)N[C@H](C(=O)N[C@@H](CCCCN)C(=O)N[C@@H](C)C(=O)N[C@@H](CS)C(=O)N[C@@H](CCC(=O)O)C(=O)N[C@@H](Cc1c[nH]c2ccccc12)C(=O)N[C@@H](C)C(=O)N[C@@H](CS)C(=O)N[C@@H](CCC(N)=O)C(=O)O)C(C)C)[C@@H](C)O (H-NR[Cha]CELFCIQGTGDVKACEWACQ-OH)
2500 nM	CC[C@H](C)[C@H](NC(=O)[C@H](CS)NC(=O)[C@H](Cc1ccccc1)NC(=O)[C@H](CC(C)C)NC(=O)[C@H](CCC(=O)O)NC(=O)[C@H](CS)NC(=O)[C@H](Cc1ccccc1)NC(=O)[C@H](CCCNC(=N)N)NC(=O)[C@@H](N)CO)C(=O)N[C@@H](CCC(N)=O)C(=O)NCC(=O)N[C@H](C(=O)NCC(=O)N[C@@H](CC(=O)O)C(=O)N[C@H](C(=O)N[C@@H](CCCCN)C(=O)N[C@@H](C)C(=O)N[C@@H](CS)C(=O)N[C@@H](CCC(=O)O)C(=O)N[C@@H](Cc1c[nH]c2ccccc12)C(=O)N[C@@H](C)C(=O)N[C@@H](CS)C(=O)N[C@@H](CCC(N)=O)C(=O)O)C(C)C)[C@@H](C)O (H-SRFCELFCIQGTGDVKACEWACQ-OH)

Continued, molecule first:

Structure (SMILES)	Ki
CC[C@H](C)[C@H](NC(=O)[C@H](CS)NC(=O)[C@H](Cc1ccccc1)NC(=O)[C@H](CCSC)NC(=O)[C@H](CCC(=O)O)NC(=O)[C@H](CS)NC(=O)[C@H](Cc1ccccc1)NC(=O)[C@H](CCCNC(=N)N)NC(=O)[C@@H](N)CC(N)=O)C(=O)N[C@@H](CCC(N)=O)C(=O)NCC(=O)N[C@H](C(=O)NCC(=O)N[C@@H](CC(=O)O)C(=O)N[C@H](C(=O)N[C@@H](CCCCN)C(=O)N[C@@H](C)C(=O)N[C@@H](CS)C(=O)N[C@@H](CCC(=O)O)C(=O)N[C@@H](Cc1c[nH]c2ccccc12)C(=O)N[C@@H](C)C(=O)N[C@@H](CS)C(=O)N[C@@H](CCC(N)=O)C(=O)O)C(C)C)[C@@H](C)O (H-NRFCEMFCIQGTGDVKACEWACQ-OH)	4100 nM
CC[C@H](C)[C@H](NC(=O)[C@H](CS)NC(=O)[C@H](Cc1ccccc1)NC(=O)[C@H](CC(C)C)NC(=O)[C@H](CCCCN)NC(=O)[C@H](CS)NC(=O)[C@H](Cc1ccccc1)NC(=O)[C@H](CCCNC(=N)N)NC(=O)[C@@H](N)CC(N)=O)C(=O)N[C@@H](CCC(N)=O)C(=O)NCC(=O)N[C@H](C(=O)NCC(=O)N[C@@H](CC(=O)O)C(=O)N[C@H](C(=O)N[C@@H](CCCCN)C(=O)N[C@@H](C)C(=O)N[C@@H](CS)C(=O)N[C@@H](CCC(=O)O)C(=O)N[C@@H](Cc1c[nH]c2ccccc12)C(=O)N[C@@H](C)C(=O)N[C@@H](CS)C(=O)N[C@@H](CCC(N)=O)C(=O)O)C(C)C)[C@@H](C)O (H-NRFCKLFCIQGTGDVKACEWACQ-OH)	2700 nM
CC[C@H](C)[C@H](NC(=O)[C@H](CS)NC(=O)[C@H](Cc1ccccc1)NC(=O)[C@H](CC(C)C)NC(=O)[C@H](CCC(=O)O)NC(=O)[C@H](CS)NC(=O)[C@H](Cc1ccccc1Cl)NC(=O)[C@H](CCCNC(=N)N)NC(=O)[C@@H](N)CC(N)=O)C(=O)N[C@@H](CCC(N)=O)C(=O)NCC(=O)N[C@H](C(=O)NCC(=O)N[C@@H](CC(=O)O)C(=O)N[C@H](C(=O)N[C@@H](CCCCN)C(=O)N[C@@H](C)C(=O)N[C@@H](CS)C(=O)N[C@@H](CCC(=O)O)C(=O)N[C@@H](Cc1c[nH]c2ccccc12)C(=O)N[C@@H](C)C(=O)N[C@@H](CS)C(=O)N[C@@H](CCC(N)=O)C(=O)O)C(C)C)[C@@H](C)O (H-NR[Phe(2-Cl)]CELFCIQGTGDVKACEWACQ-OH)	2200 nM
CC[C@H](C)[C@H](NC(=O)[C@H](CS)NC(=O)[C@H](Cc1ccccc1)NC(=O)[C@H](CC(C)C)NC(=O)[C@H](CCC(=O)O)NC(=O)[C@H](CS)NC(=O)[C@H](Cc1ccc(Cl)cc1)NC(=O)[C@H](CCCNC(=N)N)NC(=O)[C@@H](N)CC(N)=O)C(=O)N[C@@H](CCC(N)=O)C(=O)NCC(=O)N[C@H](C(=O)NCC(=O)N[C@@H](CC(=O)O)C(=O)N[C@H](C(=O)N[C@@H](CCCCN)C(=O)N[C@@H](C)C(=O)N[C@@H](CS)C(=O)N[C@@H](CCC(=O)O)C(=O)N[C@@H](Cc1c[nH]c2ccccc12)C(=O)N[C@@H](C)C(=O)N[C@@H](CS)C(=O)N[C@@H](CCC(N)=O)C(=O)O)C(C)C)[C@@H](C)O (H-NR[Phe(4-Cl)]CELFCIQGTGDVKACEWACQ-OH)	2300 nM
